Measured values as given in ChEMBL document CHEMBL1201862, “PubChem BioAssay data set” (2004).
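The compound was tested at five concentrations on cells cultured in 96-well plates, with a 48-hour exposure period. The concentration for 50% growth inhibition is given as GI50.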 Calls of active or inactive are those of the source. Cut-off read from the data, not from the text of the source: active = GI50 up to about 1.1 µM and inactive = higher.

Key:
Assay in all cases: NCI anticancer screen, dose series, 48 h
[1] = system: 786-0
[2] = system: A549
[3] = system: ACHN
[4] = system: CAKI-1
[5] = system: CCRF-CEM
[6] = system: COLO 205
[7] = system: DLD-1
[8] = system: DMS-114
[9] = system: DMS-273
[10] = system: HCT-116
[11] = system: HCT-15
[12] = system: HL-60
[13] = system: HOP-18
[14] = system: HOP-62
[15] = system: HOP-92
[16] = system: HT-29
[17] = system: IGROV-1
[18] = system: K562
[19] = system: KM12
[20] = system: LOX IMVI
[21] = system: LXFL 529
[22] = system: M14
[23] = system: M19-MEL
[24] = system: MOLT-4
[25] = system: Malme-3M
[26] = system: NCI-H226
[27] = system: NCI-H23
[28] = system: NCI-H460
[29] = system: NCI-H522
[30] = system: OVCAR-4
[31] = system: OVCAR-5
[32] = system: OVCAR-8
[33] = system: RPMI-8226
[34] = system: RXF 393
[35] = system: SF-268
[36] = system: SF-295
[37] = system: SF-539
[38] = system: SK-MEL-28
[39] = system: SK-MEL-2
[40] = system: SK-MEL-5
[41] = system: SK-OV-3
[42] = system: SN12C
[43] = system: SNB-75
[44] = system: SR
[45] = system: SW-620
[46] = system: TK-10
[47] = system: U-251
[48] = system: UACC-257
[49] = system: UACC-62
[50] = system: UO-31
[51] = system: A498
[52] = system: EKVX
[53] = system: HCC 2998
[54] = system: KM-20L2
[55] = system: OVCAR-3
[56] = system: SNB-19
[57] = system: SNB-78

[N-]=[N+]=NC1(Cc2ccccc2)C(=O)c2cccc3c2N(CCC3)C1=O (stereo not drawn)
GI50 [1]: > 100 µM (inactive) | GI50 [2]: > 100 µM (inactive) | GI50 [3]: > 100 µM (inactive) | GI50 [4]: > 100 µM (inactive) | GI50 [5]: > 100 µM (inactive) | GI50 [6]: > 100 µM (inactive) | GI50 [7]: > 100 µM (inactive) | GI50 [8]: > 100 µM (inactive) | GI50 [9]: > 100 µM (inactive) | GI50 [10]: > 100 µM (inactive) | GI50 [11]: > 100 µM | GI50 [12]: > 100 µM (inactive) | GI50 [13]: > 100 µM (inactive) | GI50 [14]: > 100 µM (inactive) | GI50 [15]: > 100 µM (inactive) | GI50 [16]: > 100 µM (inactive) | GI50 [17]: > 100 µM (inactive) | GI50 [18]: > 100 µM (inactive) | GI50 [19]: > 100 µM (inactive) | GI50 [20]: > 100 µM (inactive) | GI50 [21]: > 100 µM (inactive) | GI50 [22]: > 100 µM (inactive) | GI50 [23]: > 100 µM (inactive) | GI50 [24]: > 100 µM (inactive) | GI50 [25]: > 100 µM (inactive) | GI50 [26]: > 100 µM (inactive) | GI50 [27]: > 100 µM (inactive) | GI50 [28]: > 100 µM (inactive) | GI50 [29]: > 100 µM (inactive) | GI50 [30]: > 100 µM (inactive) | GI50 [31]: > 100 µM (inactive) | GI50 [32]: > 100 µM (inactive) | GI50 [33]: > 100 µM (inactive) | GI50 [34]: > 100 µM (inactive) | GI50 [35]: > 100 µM (inactive) | GI50 [36]: > 100 µM (inactive) | GI50 [37]: > 100 µM (inactive) | GI50 [38]: > 100 µM (inactive) | GI50 [39]: > 100 µM (inactive) | GI50 [40]: > 100 µM (inactive) | GI50 [41]: 40.3 µM (inactive) | GI50 [42]: > 100 µM (inactive) | GI50 [43]: > 100 µM (inactive) | GI50 [44]: > 100 µM (inactive) | GI50 [45]: > 100 µM (inactive) | GI50 [46]: > 100 µM (inactive) | GI50 [47]: > 100 µM (inactive) | GI50 [48]: > 100 µM (inactive) | GI50 [49]: > 100 µM (inactive) | GI50 [50]: > 100 µM (inactive)

CCOC(=O)C1=C(C)N2CCOC2(C)C(C(=O)OC)C1c1cccc(Cl)c1 (stereo not drawn)
GI50 [1]: > 100 µM (inactive) | GI50 [51]: > 100 µM (inactive) | GI50 [2]: > 100 µM (inactive) | GI50 [3]: > 100 µM (inactive) | GI50 [4]: > 100 µM (inactive) | GI50 [5]: > 100 µM (inactive) | GI50 [6]: > 100 µM (inactive) | GI50 [7]: > 100 µM (inactive) | GI50 [8]: 54 µM (inactive) | GI50 [9]: > 100 µM (inactive) | GI50 [52]: > 100 µM (inactive) | GI50 [53]: > 100 µM (inactive) | GI50 [10]: > 100 µM (inactive) | GI50 [11]: > 100 µM | GI50 [12]: 56.4 µM (inactive) | GI50 [13]: > 100 µM (inactive) | GI50 [14]: > 100 µM (inactive) | GI50 [15]: 31.6 µM (inactive) | GI50 [16]: > 100 µM (inactive) | GI50 [17]: > 100 µM (inactive) | GI50 [18]: 81.5 µM (inactive) | GI50 [54]: > 100 µM (inactive) | GI50 [19]: > 100 µM (inactive) | GI50 [20]: > 100 µM (inactive) | GI50 [21]: > 100 µM (inactive) | GI50 [22]: > 100 µM (inactive) | GI50 [23]: > 100 µM (inactive) | GI50 [25]: > 100 µM (inactive) | GI50 [27]: > 100 µM (inactive) | GI50 [28]: > 100 µM (inactive) | GI50 [29]: 88.7 µM (inactive) | GI50 [55]: > 100 µM (inactive) | GI50 [31]: > 100 µM (inactive) | GI50 [32]: > 100 µM (inactive) | GI50 [33]: > 100 µM (inactive) | GI50 [35]: > 100 µM (inactive) | GI50 [36]: > 100 µM (inactive) | GI50 [37]: > 100 µM (inactive) | GI50 [38]: > 100 µM (inactive) | GI50 [39]: > 100 µM (inactive) | GI50 [40]: > 100 µM (inactive) | GI50 [41]: > 100 µM (inactive) | GI50 [42]: > 100 µM (inactive) | GI50 [56]: > 100 µM (inactive) | GI50 [43]: > 100 µM (inactive) | GI50 [57]: > 100 µM (inactive) | GI50 [44]: > 100 µM (inactive) | GI50 [45]: > 100 µM (inactive) | GI50 [46]: > 100 µM (inactive) | GI50 [47]: > 100 µM (inactive) | GI50 [48]: > 100 µM (inactive) | GI50 [49]: 88.7 µM (inactive) | GI50 [50]: > 100 µM (inactive)
